# Like-named read-outs stand apart in the source and are kept apart here.
# Assays:
# [1] = tested on: S. aureus ATCC 29213; assay: Broth microdilution MIC with arithmetic drug dilutions; type: cell-based, Staphylococcus aureus; conditions: for MIC: Staphylococcus aureus, ATCC29213, mean
# Procedure: (§1) Pooled sera from humans, mice and rats were obtained from Equitech-Bio (Kerrville, Tex.); pooled serum from beagle dogs was from Bioreclamation (Liverpool, N.Y.). ULTRA was prepared using Centricon Plus-50 ultrafilters (Millipore, Billerica, Mass.), whose molecular weight cutoff (50 kDa) excludes albumin. ORI stock solutions were prepared following CLSI M100-818 (Clinical and Laboratory Standards Institute. 2008. CLSI document M100-S18). Staphylococcus aureus ATCC 29213 was used as the test isolate at a final inoculum of ˜5×10^5 CFU/mL in both MIC and AUIC studies.
# (§2) Arithmetic MICs: Broth microdilution MIC assays with Staphylococcus aureus ATCC 29213 were based on CLSI guidelines (Clinical and Laboratory Standards Institute, 2009, CLSI document M7-A7). Growth media were 95% serum:5% CAMHB and 95% serum ultrafiltrate:5% CAMHB. Arithmetic dilutions of oritavancin and comparators were used to increase precision of minimum inhibitory concentration (MIC) values relative to doubling dilutions. Percent binding in serum was calculated as follows: % Bound=(1−[mean MICultrafiltrate/mean MICserum]×100%
# [2] = Serum protein binding estimated from MIC shift, serum vs serum ultrafiltrate (mouse); type: in vitro ADME; conditions: pooled mouse serum compared with serum ultrafiltrate; mouse serum; from mean MICs, broth microdilution; this study; read-out: % Bound (protein binding estimate) (converted)
# From the text: (§3) Avid binding of oritavancin (ORI) to filtration and dialysis membranes renders most protein binding methodologies unsuitable. To control for any impact of serum components on bacterial growth and antibiotic activity, MIC shifts (from arithmetic drug dilutions) and area under the inhibitory curve (AUIC) shifts (from time-kill assays) were quantified in the presence of serum (SER) compared to SER ultrafiltrate (ULTRA; free of albumin) to estimate ORI binding to serum. In this manner, the extent of reduction in oritavancin activity in serum was related to its degree of serum protein binding. The method was benchmarked using daptomycin and ceftriaxone (Lee et al., Antimicrob Agents Chemother. 35:2505-2508 (1991); Schmidt et al., Antimicrob Agents Chemother. 52:3994-4000 (2008); Yuk et al., Clin Pharmacokinet. 17:223-235 (1989); McKay et al., Evaluation of oritavancin activity in vitro in the presence of human and mouse serum, abstr P1854. Abstr. 19th European Congress of Clinical Microbiology and Infectious Diseases. European Society of Clinical Microbiology and Infectious Diseases, Basel, Switzerland, May 16, 2009).
# as §1
# as §2, with “Arithmetic dilutions of oritavancin and comparators were used to increase precision of minimum inhibitory concentration (MIC) values relative to doubling dilutions.” left out
# [3] = tested on: human serum; conditions: cited from earlier work
# [4] = tested on: beagle dog serum protein; assay: Serum protein binding estimated from MIC shift, serum vs serum ultrafiltrate (dog); type: in vitro ADME; conditions: from mean MICs, broth microdilution, this study
# From the text: as §3, §1
# as §2, with “Arithmetic dilutions of oritavancin and comparators were used to increase precision of minimum inhibitory concentration (MIC) values relative to doubling dilutions.” left out
# [5] = Serum protein binding from MIC shift, summary across species; type: in vitro ADME, human, mouse, rat, dog; conditions: pooled serum compared with serum ultrafiltrate; serum from mouse, rat, and beagle dog; MIC shift; read-out: Serum protein binding estimates, range
# From the text: as §3, §1
# as §2, with “Arithmetic dilutions of oritavancin and comparators were used to increase precision of minimum inhibitory concentration (MIC) values relative to doubling dilutions.” left out
# [6] = tested on: rat serum protein; assay: Serum protein binding estimated from MIC shift, serum vs serum ultrafiltrate (rat); type: in vitro ADME; conditions: from mean MICs, broth microdilution, this study
# From the text: as §3, §1
# as §2, with “Arithmetic dilutions of oritavancin and comparators were used to increase precision of minimum inhibitory concentration (MIC) values relative to doubling dilutions.” left out
# [7] = tested on: human serum protein; assay: Serum protein binding estimated from MIC shift, serum vs serum ultrafiltrate (human); type: in vitro ADME; conditions: from mean MICs, broth microdilution, this study
# From the text: as §3, §1
# as §2, with “Arithmetic dilutions of oritavancin and comparators were used to increase precision of minimum inhibitory concentration (MIC) values relative to doubling dilutions.” left out
# [8] = tested on: plasma protein; conditions: across tested species; Shaw et al. 2008; cited from earlier work
# [9] = tested on: mouse serum protein; assay: Serum protein binding estimated from MIC shift, serum vs serum ultrafiltrate (mouse); type: in vitro ADME; conditions: mouse, serum
# From the text: as §3, §1
# as §2, with “Arithmetic dilutions of oritavancin and comparators were used to increase precision of minimum inhibitory concentration (MIC) values relative to doubling dilutions.” left out
# [10] = 95% dog serum + 5% CAMHB, read-out: MIC, Serum
# [11] = 95% dog serum ultrafiltrate + 5% CAMHB, read-out: MIC, Ultrafiltrate
# [12] = 95% human serum + 5% CAMHB, read-out: MIC, Serum
# [13] = 95% human serum ultrafiltrate + 5% CAMHB, read-out: MIC, Ultrafiltrate
# [14] = 95% mouse serum + 5% CAMHB, read-out: MIC, Serum
# [15] = 95% mouse serum ultrafiltrate + 5% CAMHB, read-out: MIC, Ultrafiltrate
# [16] = 95% rat serum + 5% CAMHB, read-out: MIC, Serum
# [17] = 95% rat serum ultrafiltrate + 5% CAMHB, read-out: MIC, Ultrafiltrate
# [18] = cation-adjusted Mueller-Hinton broth, CLSI conditions, Dog, read-out: MIC, CAMHB
# [19] = cation-adjusted Mueller-Hinton broth, CLSI conditions, Human, read-out: MIC, CAMHB
# [20] = cation-adjusted Mueller-Hinton broth, CLSI conditions, Mouse, read-out: MIC, CAMHB
# [21] = cation-adjusted Mueller-Hinton broth, CLSI conditions, Rat, read-out: MIC, CAMHB
# [22] = mean MIC in 95% dog serum / mean MIC in 95% dog serum ultrafiltrate
# [23] = mean MIC in 95% human serum / mean MIC in 95% human serum ultrafiltrate
# [24] = mean MIC in 95% mouse serum / mean MIC in 95% mouse serum ultrafiltrate
# [25] = mean MIC in 95% rat serum / mean MIC in 95% rat serum ultrafiltrate
SMILES,"MIC [1, 10] [µg/mL]","MIC [1, 11] [µg/mL]","MIC [1, 12] [µg/mL]","MIC [1, 13] [µg/mL]","MIC [1, 14] [µg/mL]","MIC [1, 15] [µg/mL]","MIC [1, 16] [µg/mL]","MIC [1, 17] [µg/mL]","MIC [1, 18] [µg/mL]","MIC [1, 19] [µg/mL]","MIC [1, 20] [µg/mL]","MIC [1, 21] [µg/mL]","Mean Fold MIC Increase [1, 22] [fold]","Mean Fold MIC Increase [1, 23] [fold]","Mean Fold MIC Increase [1, 24] [fold]","Mean Fold MIC Increase [1, 25] [fold]",% Bound (protein binding estimate) [4] [%],% Bound (protein binding estimate) [6] [%],% Bound (protein binding estimate) [7] [%],further results
CO/N=C(\C(=O)N[C@@H]1C(=O)N2C(C(=O)O)=C(CSc3nc(=O)c(=O)[nH]n3C)CS[C@H]12)c1csc(N)n1 [Ceftriaxone],1.38,1.09,38.8,2.88,6,3.75,5.88,3.88,5.25,4.88,5,3.5,1.3,13.5,1.6,1.5,20.9,34.0,92.6,fraction unbound [2]: 0.625; Binding estimate from in vitro microdialysis [3]: 76.8%; fraction unbound [5]: 0.625 to 0.791
CCCCCCCCCCNCCN[C@@]1(C)C[C@H](O[C@H]2[C@H](Oc3c4cc5cc3Oc3ccc(cc3Cl)[C@@H](O)[C@@H](NC(=O)[C@@H](CC(C)C)NC)C(=O)N[C@@H](CC(N)=O)C(=O)N[C@H]5C(=O)N[C@H]3C(=O)N[C@H](C(=O)N[C@H](C(=O)O)c5cc(O)c(CNCP(=O)(O)O)c(O)c5-c5cc3ccc5O)[C@H](O)c3ccc(c(Cl)c3)O4)O[C@H](CO)[C@@H](O)[C@@H]2O)O[C@@H](C)[C@H]1O [telavancin],,,,,,,,,,,,,,,,,,,,Plasma protein binding [8]: approximately 90%
CCCCCCCCCC(=O)N[C@@H](Cc1c[nH]c2ccccc12)C(=O)N[C@H](CC(N)=O)C(=O)N[C@@H](CC(=O)O)C(=O)N[C@@H]1C(=O)NCC(=O)N[C@@H](CCCN)C(=O)N[C@@H](CC(=O)O)C(=O)N[C@H](C)C(=O)N[C@@H](CC(=O)O)C(=O)NCC(=O)N[C@H](CO)C(=O)N[C@@H]([C@H](C)CC(=O)O)C(=O)N[C@@H](CC(=O)c2ccccc2N)C(=O)O[C@@H]1C [Daptomycin],2.5,0.638,3,0.513,12.5,3,1.56,0.538,1,0.975,0.975,1.25,3.9,5.8,4.2,2.9,74.5,65.6,82.9,% Bound (protein binding estimate) [9]: 76.0%

# — patent US9682061B2, “Methods of treating bacterial infections using oritavancin” (THE MEDICINES COMPANY, priority 2009, dated 2017)
